Measurements reported in US20260151383A1, “HETEROCYCLIC COMPOUNDS AND USES THEREOF” (KayoThera Inc., priority 2022, published 2026).

Legend:
Format in all cases: biochemical
Details in all cases: recombinant enzyme, 20° C., activity level classes
mALDH1a3 = target: T1, mALDH1a3 (Mus musculus, UniProt Q9JHW9); assay: Aldh1a3 enzyme inhibition assay (resorufin fluorescence), mouse enzyme
T1 construct: made in house; host or cells: E. coli BL21-DE3
T1 sequence (Q9JHW9 1-512): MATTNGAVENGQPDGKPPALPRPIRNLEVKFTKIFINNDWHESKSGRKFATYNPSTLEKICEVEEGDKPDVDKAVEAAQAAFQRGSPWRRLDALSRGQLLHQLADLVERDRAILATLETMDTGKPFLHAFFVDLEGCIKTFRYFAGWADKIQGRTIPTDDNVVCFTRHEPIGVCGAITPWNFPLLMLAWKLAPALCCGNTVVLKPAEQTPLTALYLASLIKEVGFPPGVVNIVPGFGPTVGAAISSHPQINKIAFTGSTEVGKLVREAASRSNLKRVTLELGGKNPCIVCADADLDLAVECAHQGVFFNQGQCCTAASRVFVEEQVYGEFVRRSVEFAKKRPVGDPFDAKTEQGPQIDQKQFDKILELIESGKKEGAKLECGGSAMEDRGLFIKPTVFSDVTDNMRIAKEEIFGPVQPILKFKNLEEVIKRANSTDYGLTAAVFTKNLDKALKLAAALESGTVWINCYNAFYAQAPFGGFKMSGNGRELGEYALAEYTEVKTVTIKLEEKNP
Description: Recombinant enzyme and inhibitor added immediately before assay. Reaction rate measured by resorufin fluorescence.

hALDH1a3 = target: T2, hALDH1a3 (Homo sapiens, UniProt P47895); assay: Aldh1a3 enzyme inhibition assay (resorufin fluorescence), human enzyme
T2 construct: made in house; host or cells: E. coli BL21-DE3
T2 sequence (P47895 1-512): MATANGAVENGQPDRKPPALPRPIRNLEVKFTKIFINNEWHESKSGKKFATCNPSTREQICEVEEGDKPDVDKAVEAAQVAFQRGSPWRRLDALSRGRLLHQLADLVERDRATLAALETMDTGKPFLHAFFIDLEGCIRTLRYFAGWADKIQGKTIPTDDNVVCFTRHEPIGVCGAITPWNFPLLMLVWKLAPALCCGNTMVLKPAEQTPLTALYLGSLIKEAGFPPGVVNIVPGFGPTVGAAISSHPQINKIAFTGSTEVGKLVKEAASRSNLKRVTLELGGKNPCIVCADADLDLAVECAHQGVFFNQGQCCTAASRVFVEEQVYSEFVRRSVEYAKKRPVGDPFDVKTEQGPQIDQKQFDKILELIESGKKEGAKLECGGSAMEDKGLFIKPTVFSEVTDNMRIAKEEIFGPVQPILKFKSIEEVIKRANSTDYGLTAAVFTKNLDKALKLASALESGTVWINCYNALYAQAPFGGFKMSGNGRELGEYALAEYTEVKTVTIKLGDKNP

mALDH1a2 = target: T3, mALDH1a2 (Mus musculus, UniProt Q62148); assay: Aldh1a2 enzyme inhibition assay (resorufin fluorescence), mouse enzyme
T3 construct: made in house; host or cells: E. coli BL21-DE3
T3 sequence (Q62148 1-518): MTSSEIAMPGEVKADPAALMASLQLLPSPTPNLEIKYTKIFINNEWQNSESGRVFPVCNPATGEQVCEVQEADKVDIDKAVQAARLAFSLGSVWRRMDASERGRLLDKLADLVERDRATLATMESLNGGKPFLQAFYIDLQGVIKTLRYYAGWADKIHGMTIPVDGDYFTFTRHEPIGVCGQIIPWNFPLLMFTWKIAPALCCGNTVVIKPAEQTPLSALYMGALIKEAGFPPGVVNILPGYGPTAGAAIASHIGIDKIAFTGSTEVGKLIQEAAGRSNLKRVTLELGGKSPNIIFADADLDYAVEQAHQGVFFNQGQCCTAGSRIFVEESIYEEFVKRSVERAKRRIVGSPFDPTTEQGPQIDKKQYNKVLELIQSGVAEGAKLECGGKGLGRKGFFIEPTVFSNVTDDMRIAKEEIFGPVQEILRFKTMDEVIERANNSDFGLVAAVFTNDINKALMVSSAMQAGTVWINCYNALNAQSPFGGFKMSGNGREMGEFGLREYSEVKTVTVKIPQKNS
Description: (§1) Recombinant enzyme and inhibitor added immediately before assay. Reaction rate measured by resorufln fluorescence.

hALDH1a2 = target: T4, hALDH1a2 (Homo sapiens, UniProt O94788); assay: Aldh1a2 enzyme inhibition assay (resorufin fluorescence), human enzyme
T4 construct: made in house; host or cells: E. coli BL21-DE3
T4 sequence (O94788 1-518): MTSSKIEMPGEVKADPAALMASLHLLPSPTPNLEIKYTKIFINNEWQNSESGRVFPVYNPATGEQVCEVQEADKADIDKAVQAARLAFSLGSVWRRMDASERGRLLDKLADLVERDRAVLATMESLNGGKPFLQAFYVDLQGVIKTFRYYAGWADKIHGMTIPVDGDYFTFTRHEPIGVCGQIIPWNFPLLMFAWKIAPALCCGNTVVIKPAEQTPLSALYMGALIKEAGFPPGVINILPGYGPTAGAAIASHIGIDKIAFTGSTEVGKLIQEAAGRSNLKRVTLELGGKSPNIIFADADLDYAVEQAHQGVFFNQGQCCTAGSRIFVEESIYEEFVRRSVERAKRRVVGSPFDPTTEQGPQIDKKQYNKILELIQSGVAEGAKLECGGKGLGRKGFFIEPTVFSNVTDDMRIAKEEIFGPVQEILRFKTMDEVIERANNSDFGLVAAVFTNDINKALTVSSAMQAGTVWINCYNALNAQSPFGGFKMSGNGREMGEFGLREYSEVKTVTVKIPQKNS
Description: as §1

SMILES | IC50 (mALDH1a3) | IC50 (hALDH1a3) | IC50 (mALDH1a2) | IC50 (hALDH1a2)
Cc1cc(NC(=O)c2cnsc2CC(F)(F)F)cc2c1NC(=O)CC2 [Compound 49] | < 100 nM | < 100 nM | 100 to 250 nM | < 100 nM
O=C1CCc2cc(NC(=O)c3scnc3-c3cccc(F)c3)ccc2N1 [Compound 6, 4-(3-fluorophenyl)-N-(2-oxo-1,2,3,4-tetrahydroquinolin-6-yl)thiazole-5-carboxamide] | 100 to 250 nM | < 100 nM | 1000 to 5000 nM | 1000 to 5000 nM
